Results from patent publication US5614370A, “Assay to identify human C5a antagonists and agonists” (Merck & Co., Inc., priority 1994, dated 1997).
“Also recorded” adds a separate entry of the source. Read-outs that look alike come from different tables or passages of the source. Non-standard residues stand in square brackets, D forms with d. Residues, ends and D or L forms follow the SMILES beside them. 1Nal = N[C@@H](Cc1cccc2ccccc12)C(=O)O; NMeF = CN[C@@H](Cc1ccccc1)C(=O)O; Cha = N[C@@H](CC1CCCCC1)C(=O)O; dCha = N[C@H](CC1CCCCC1)C(=O)O

Tests used:
human neutrophils = assay: Degranulation, myeloperoxidase (MPO) release from human neutrophils (agonism); assay type: cell-based; conditions: for EC50: MPO release, read-out: ED50 for degranulation; for EC50/IC50 (degranulation/binding): ratio degranulation EC50 to binding IC50
Description: FIG. 5A and 5B. Degranulation and Ca^2+ responses to the hexapeptides. […] The ED50 's for the degranulation are: C5a, 0.5 nM; C028, 0.2 μM; C026, 1 μM. C5a, maximally, released 57% of the total cellular content of MPO. The ability of these molecules to elicite a Ca^2+ -flux is shown in B. The concentrations used for C028 (10 μM), C026 (10 μM), C061 (100 μM) are those which produce a maximal flux. A saturating concentration was also used for C5a (1 nM).
This assay was performed on human neutrophils as previously reported and it is a measure of C5a or peptide induced exocytosis (Rollins, T. E. and Springer, M. S. (1985) J. Biol. Chem. 260, 7157-7160).
The functional properties of two of the peptides, C026, and C028, were originally described by Mollison et. al (Mollison, K. W., Krause, R. A., Fey, T. A., Miller, L., Wiedeman, P. e., Kawai, M., Lane, B., Luly, J. R. and Carter, G. W. (1992) FASEB J. 6, A2058). […] We have reinvestigated the degranulating activities of these peptides as measured by the release of myeloperoxidase (MPO) from human neutrophils. […] The EC50 /IC50 (degranulation/binding) for C028 is 8, the same as that measured for C5a (Table II, FIG. 5A). […] However, the difference in activity between C026 and C028 is significant and reproducible. Since the structural difference between the two is the substitution of an aromatic for an aliphatic residue (Phe for Cha) we chose to make additional changes at position 5 which further increased aromaticity. […] To further examine whether the differences in activity between the peptides reflects the increased aromaticity we synthesized a molecule with Leu, an aliphatic amino acid, at position 5 (C068, Table II).

C5a receptor = biological target: T1, C5a receptor (Homo sapiens, UniProt P21730); assay: biochemical; assay type: binding
T1 construct: followed by a 20 μL aliquot of neutrophil membrane; endogenous in cells
T1 sequence (P21730 1-350): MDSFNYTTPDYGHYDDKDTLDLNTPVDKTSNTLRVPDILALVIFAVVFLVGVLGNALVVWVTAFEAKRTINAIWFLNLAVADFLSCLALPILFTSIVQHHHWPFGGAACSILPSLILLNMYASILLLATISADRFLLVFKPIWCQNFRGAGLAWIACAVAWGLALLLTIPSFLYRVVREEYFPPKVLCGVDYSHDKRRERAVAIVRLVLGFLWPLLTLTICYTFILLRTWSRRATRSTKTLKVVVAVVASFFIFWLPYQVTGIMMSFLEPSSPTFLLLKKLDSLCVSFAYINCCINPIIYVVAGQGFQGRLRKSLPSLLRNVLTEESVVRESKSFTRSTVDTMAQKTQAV
Description: Initially, we attempted to conduct binding studies with ^125 I radiolabeled C009: ^125 I-Tyr Phe Lys Ala Cha Cha Leu dPhe Arg, SEQ.ID:1:, wherein Cha is cyclohexylalanine, and dPhe is the D isomer of phenylalanine. This compound is a C5a agonist displaying a Ki for C5a of 8 nM. The presence of the tyrosine allowed us to radioiodinate the peptide and establish a binding assay in which both C5a (IC50=0.1 nM) and unlabeled C009 (IC50 =10 nM) inhibit the binding of ^125 I-C009 with concentration dependencies similar to those obtained from competition experiments against ^125 I-C5a.
In FIG. 1, unlabeled C013 is used to compete with ^125 I-labeled C5a. […] In FIG. 2, the C013 is ^125 I labeled. Unlabeled C5a and unlabeled C013 are each used to compete the labeled C013 from C5a binding sites on the membranes. […] In FIG. 3a, ^125 I-C5a is competed from its binding site by unlabeled C064 and unlabeled, natural C5a (as opposed to recombinant C5a, which, however, may also obviously may be used for these purposes). […] In FIG. 3b, the inverse experiment is shown, wherein ^125 I-C064 is displaced by unlabeled C064 and unlabeled nC5a.
Peptide (5 nMoles) are added to 40μL of 0.1 M sodium phosphate, pH 7.6, in a tube, followed by 2 mCi of ^125 I in 20 μL. 10 μL of a freshly made 0.5 mg/mL solution of chloramine T is then added. After 30 seconds of incubation, 10 μL of a freshly prepared 2 mg/mL solution of Na2 S2 O3 is added, the tube is vortexed, and the sample loaded onto a Vydac C4 reverse phase column. The column is developed with a TFA/acetonitrile gradient and the iodinated peptide is isolated. The material is stored at 4° C. in the elution buffer.
To 205 μL binding buffer (50 mM HEPES, pH 7.2, containing 5 mM MgCl2, 1mM CaCl2, 0.5% BSA) in a polypropylene tube is added 30,000CPM of the ^125 I peptide in 20 μL, and 5 μL of a known dilution of the test compound or diluent, followed by a 20 μL aliquot of neutrophil membrane [equivalent to 500,000 neutrophils; Rollins, T.E. et al., J. Biol Chem. 260:7157 (1985); see also U.S. Pat. No. 5,177,190, herein incorporated by reference].
The assay mixture is incubated for 2 hours at 29° C. Binding buffer (2 mL) is then added, the tube is vortexed, and the contents filtered over a Wattmann GF/C filter soaked in 0.33% polyethylenimine. An additional aliquot of binding buffer (2 mL) is added to the tube to rinse the tube, and is then used to wash the filter. The filters are removed from the apparatus and counted. Non-specific backgrounds are determined by performing assays in the presence of either 10 nM C5a, or 1 μM unlabeled peptide. Compounds which inhibit the binding of the labeled peptide are considered to be potential active compounds.

neutrophils = conditions: Drapeau et al.; cited from earlier work
degranulation = conditions: Mollison et al., cited from earlier work
chemokinetic response = conditions: Mollison et al.; cited from earlier work
[1] = labeled ligand 125I-C009, read-out: IC50 for inhibition of binding of 125I-C009

| Molecule | IC50 (C5a receptor; [1]) | EC50 (human neutrophils; FIG. 5A) | EC50/IC50 (degranulation/binding) (human neutrophils) | degranulating activity in words (human neutrophils; FIG. 5A) | degranulating activity in words (degranulation) | further results |
| --- | --- | --- | --- | --- | --- | --- |
| CN[C@@H](Cc1ccccc1)C(=O)N[C@@H](CCCCN)C(=O)N1CCC[C@H]1C(=O)N[C@H](CC1CCCCC1)C(=O)N[C@@H](Cc1c[nH]c2ccccc12)C(=O)N[C@H](CCCNC(=N)N)C(=O)O [C089] |  |  |  | totally devoid of degranulating activity |  |  |
| CN[C@@H](Cc1ccccc1)C(=O)N[C@@H](CCCCN)C(=O)N1CCC[C@H]1C(=O)N[C@H](CC1CCCCC1)C(=O)N[C@@H](Cc1cccc2ccccc12)C(=O)N[C@H](CCCNC(=N)N)C(=O)O [C061] (H-[NMeF]KP[dCha][1Nal][dR]-OH) |  |  |  | totally devoid of degranulating activity |  |  |
| CN[C@@H](Cc1ccccc1)C(=O)N[C@@H](CCCCN)C(=O)N1CCC[C@H]1C(=O)N[C@H](CC1CCCCC1)C(=O)N[C@@H](Cc1ccccc1)C(=O)N[C@H](CCCNC(=N)N)C(=O)O [C026, NMeF--K--P-dCha-F-dR] (H-[NMeF]KP[dCha]F[dR]-OH) |  | 1000 nM | 20 | partial agonist for degranution induction; also recorded: retains substantial degranulating activity | not only failed to stimulate degranulation, it acted as an antagonist for this property | MPO release relative to the maximal release produced by C5a or C028 (human neutrophils; maximal effect, FIG. 5A): 50%; stimulation of superoxide release from neutrophils (neutrophils): failed to stimulate superoxide release from neutrophils; degranulating activity in words (degranulation; listed as NMeF--K--P-dCha-F-dR): totally devoid of degranulating activity; chemokinetic response (chemokinetic response): only a small chemokinetic response |
| C5a: 74 amino acid protein derived from the fifth component of serum complement during complement activation (protein, UniProt P01031 678-751, looked up, C5a anaphylatoxin) C5a anaphylatoxin: TLQKKIEEIAAKYKHSVVKKCCYDGACVNNDETCEQRAARISLGPRCIKAFTECCVVASQLRANISHKDMQLGR | 0.1 nM | 0.5 nM | 8 |  |  | release of total cellular MPO (human neutrophils; 0.4 nM C5a or 8 nM IL-8, cells without C089): 22%; maximal release of total cellular content of MPO (human neutrophils; maximal, FIG. 5A): 57%; IC50 (C5a receptor; labeled ligand 125I-C013, read-out: IC50 exhibited by the unlabeled ligand): 0.15 nM; IC50 (C5a receptor; labeled ligand 125I-C064, read-out: IC50 exhibited by the unlabeled ligand): 0.093 nM |

The next lines start with results.

| IC50 (C5a receptor; [1]) | EC50 (human neutrophils; FIG. 5A) | EC50/IC50 (degranulation/binding) (human neutrophils) | Molecule | degranulating activity in words (human neutrophils; FIG. 5A) | degranulating activity in words (degranulation) | further results |
| --- | --- | --- | --- | --- | --- | --- |
| 10 nM |  |  | CC(C)C[C@H](NC(=O)[C@H](CC1CCCCC1)NC(=O)[C@H](CC1CCCCC1)NC(=O)[C@H](C)NC(=O)[C@H](CCCCN)NC(=O)[C@H](Cc1ccccc1)NC(=O)[C@@H](N)Cc1ccc(O)cc1)C(=O)N[C@H](Cc1ccccc1)C(=O)N[C@@H](CCCNC(=N)N)C(=O)O [C009, Tyr Phe Lys Ala Cha Cha Leu dPhe Arg] (H-YFKA[Cha][Cha]L[dF]R-OH) |  |  | change of binding affinity by radioiodination (C5a receptor): about a four-fold loss in binding affinity |
|  | 200 nM | 8 | CN[C@@H](Cc1ccccc1)C(=O)N[C@@H](CCCCN)C(=O)N1CCC[C@H]1C(=O)N[C@H](CC1CCCCC1)C(=O)N[C@@H](CC1CCCCC1)C(=O)N[C@H](CCCNC(=N)N)C(=O)O [C028, MePhe Lys Pro dCha Cha dArg] (H-[NMeF]KP[dCha][Cha][dR]-OH) | full agonist for degranulation | exhibited normal degranulating activity |  |
